Data: ChEMBL document CHEMBL5370617, “Identification of a 1,2,4-Oxadiazole with Potent and Specific Activity against Clostridioides difficile, the Causative Bacterium of C. difficile Infection, an Urgent Public Health Threat” (2023)
Converted amounts (≈) assume the structure as drawn.

Legend:
Type in all cases: functional
Conditions in all cases: time 24-48 hrs
Clostridioides difficile [1] = experiment: Antibacterial activity against Clostridioides difficile ATCC 43255 assessed as bacterial growth inhibition measured at 24 to 48 hrs
Clostridioides difficile [2] = experiment: Antibacterial activity against Clostridioides difficile assessed as bacterial growth inhibition measured at 24 to 48 hrs
Clostridioides difficile [3] = experiment: Antibacterial activity against multi drug resistant Clostridioides difficile assessed as bacterial growth inhibition measured at 24 to 48 hrs
Clostridioides difficile [4] = experiment: Antibacterial activity against drug sensitive Clostridioides difficile assessed as bacterial growth inhibition measured at 24 to 48 hrs

| SMILES | MIC (Clostridioides difficile [1]) [µg/mL] | MIC (Clostridioides difficile [2]) [µg/mL] | also measured |
| --- | --- | --- | --- |
| FC(F)(F)c1ccc(Oc2ccc(-c3noc(-c4ccc5[nH]ccc5c4)n3)cc2)cc1 | 4 (≈ 9.49 µM) | – | – |
| Oc1ccc(-c2nc(-c3ccc(OC4CCCC4)cc3)no2)cc1 | 2 (≈ 6.2 µM) | – | – |
| O=[N+]([O-])c1cn(CCO)c(-c2nc(-c3ccc(OC4CCCC4)cc3)no2)n1 | – | > 128 | – |
| O=[N+]([O-])c1c[nH]c(-c2nc(-c3ccc(OC4CCCC4)cc3)no2)n1 | 0.25 (≈ 0.732 µM) | – | MIC90 (Clostridioides difficile [3]): 1 µg/mL (≈ 2.93 µM); MIC90 (Clostridioides difficile [4]): 1 µg/mL (≈ 2.93 µM) |
| Cn1c(-c2nc(-c3ccc(OC4CCCC4)cc3)no2)cnc1[N+](=O)[O-] | – | 32 (≈ 90.1 µM) | – |
| Cc1ncc([N+](=O)[O-])n1CCO [METRONIDAZOLE] | – | 0.25 (≈ 1.46 µM) | – |
